In PubChem BioAssay AID2060335 (Molecular Pharmacology Branch, DTP, NCI, 2025):

Test system: DU-145 multicell spheroids with HUVEC/MSC, viability
Test: Anticancer human tumor DU-145 cell line growth inhibition [IpAb];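 also: spheroids exposed to agents for seven days before measurement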;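 as to viability, T/C: percent of DMSO vehicle control viability so 100% = untreated level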
Conditions: for IC50: curve of first compound; for viability, T/C: stronger effect = lower value
Outline: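 Spheroids of 60% malignant cells, 25% HUVEC and 15% MSC were exposed to targeted agents combined with ipatasertib or abemaciclib. Doses started at or near clinical Cmax (10 microM when unknown) and fell in half-log steps.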

[1] = second compound 0.01 µM, first compound 0.0316 µM
[2] = second compound 0.01 µM, first compound 0.1 µM
[3] = second compound 0.01 µM, first compound 0.316 µM
[4] = second compound 0.01 µM, first compound 1 µM
[5] = second compound 0.01 µM, first compound 3.16 µM
[6] = second compound 0.01 µM, first compound 10 µM
[7] = second compound 0.0316 µM, first compound 0.0316 µM
[8] = second compound 0.0316 µM, first compound 0.1 µM
[9] = second compound 0.0316 µM, first compound 0.316 µM
[10] = second compound 0.0316 µM, first compound 1 µM
[11] = second compound 0.0316 µM, first compound 3.16 µM
[12] = second compound 0.0316 µM, first compound 10 µM
[13] = second compound 0.1 µM, first compound 0.0316 µM
[14] = second compound 0.1 µM, first compound 0.1 µM
[15] = second compound 0.1 µM, first compound 0.316 µM
[16] = second compound 0.1 µM, first compound 1 µM
[17] = second compound 0.1 µM, first compound 3.16 µM
[18] = second compound 0.1 µM, first compound 10 µM
[19] = second compound 0.316 µM, first compound 0.0316 µM
[20] = second compound 0.316 µM, first compound 0.1 µM
[21] = second compound 0.316 µM, first compound 0.316 µM
[22] = second compound 0.316 µM, first compound 1 µM
[23] = second compound 0.316 µM, first compound 3.16 µM
[24] = second compound 0.316 µM, first compound 10 µM
[25] = second compound 1 µM, first compound 0.0316 µM
[26] = second compound 1 µM, first compound 0.1 µM
[27] = second compound 1 µM, first compound 0.316 µM
[28] = second compound 1 µM, first compound 1 µM
[29] = second compound 1 µM, first compound 3.16 µM
[30] = second compound 1 µM, first compound 10 µM

Structure (SMILES): C=CCn1c(=O)c2cnc(Nc3ccc(N4CCN(C)CC4)cc3)nc2n1-c1cccc(C(C)(C)O)n1 + CCN1CCN(Cc2ccc(Nc3ncc(F)c(-c4cc(F)c5nc(C)n(C(C)C)c5c4)n3)nc2)CC1
- IC50 (second compound 0.01 µM): 140 nM
- IC50 (second compound 0.0316 µM): 88.3 nM
- IC50 (second compound 0.1 µM): 64.3 nM
- IC50 (second compound 0.316 µM): 55.9 nM
- IC50 (second compound 1 µM): 96.6 nM
- viability, T/C [1]: 85.5%
- viability, T/C [2]: 61.3%
- viability, T/C [3]: 21.9%
- viability, T/C [4]: 17%
- viability, T/C [5]: 10.1%
- viability, T/C [6]: 9.83%
- viability, T/C [7]: 75.3%
- viability, T/C [8]: 47.6%
- viability, T/C [9]: 21.7%
- viability, T/C [10]: 16.9%
- viability, T/C [11]: 10.7%
- viability, T/C [12]: 8.6%
- viability, T/C [13]: 69.7%
- viability, T/C [14]: 37%
- viability, T/C [15]: 21.9%
- viability, T/C [16]: 16.1%
- viability, T/C [17]: 9.64%
- viability, T/C [18]: 9.46%
- viability, T/C [19]: 58.7%
- viability, T/C [20]: 40.9%
- viability, T/C [21]: 25.2%
- viability, T/C [22]: 14.9%
- viability, T/C [23]: 9.9%
- viability, T/C [24]: 10.9%
- viability, T/C [25]: 57.3%
- viability, T/C [26]: 50.5%
- viability, T/C [27]: 27.1%
- viability, T/C [28]: 14.2%
- viability, T/C [29]: 7.82%
- viability, T/C [30]: 8.53%

Structure (SMILES): CC(C)n1nc(-c2ccc3oc(N)nc3c2)c2c(N)ncnc21 + CCN1CCN(Cc2ccc(Nc3ncc(F)c(-c4cc(F)c5nc(C)n(C(C)C)c5c4)n3)nc2)CC1
- IC50 (second compound 0.01 µM): 1.9 nM
- IC50 (second compound 0.0316 µM): 1.49 nM
- IC50 (second compound 0.1 µM): 1.46 nM
- IC50 (second compound 0.316 µM): 1.84 nM
- IC50 (second compound 1 µM): 1.86 nM
- viability, T/C (second compound 0.01 µM, first compound 0.000316 µM): 97.3%
- viability, T/C (second compound 0.01 µM, first compound 0.001 µM): 64.2%
- viability, T/C (second compound 0.01 µM, first compound 0.00316 µM): 39.3%
- viability, T/C (second compound 0.01 µM, first compound 0.01 µM): 21.2%
- viability, T/C [1]: 11.3%
- viability, T/C [2]: 9.72%
- viability, T/C (second compound 0.0316 µM, first compound 0.000316 µM): 82.2%
- viability, T/C (second compound 0.0316 µM, first compound 0.001 µM): 56%
- viability, T/C (second compound 0.0316 µM, first compound 0.00316 µM): 38.5%
- viability, T/C (second compound 0.0316 µM, first compound 0.01 µM): 19.9%
- viability, T/C [7]: 11.7%
- viability, T/C [8]: 8.9%
- viability, T/C (second compound 0.1 µM, first compound 0.000316 µM): 76.9%
- viability, T/C (second compound 0.1 µM, first compound 0.001 µM): 56.2%
- viability, T/C (second compound 0.1 µM, first compound 0.00316 µM): 36.9%
- viability, T/C (second compound 0.1 µM, first compound 0.01 µM): 23.9%
- viability, T/C [13]: 12.9%
- viability, T/C [14]: 9.08%
- viability, T/C (second compound 0.316 µM, first compound 0.000316 µM): 69.2%
- viability, T/C (second compound 0.316 µM, first compound 0.001 µM): 58.8%
- viability, T/C (second compound 0.316 µM, first compound 0.00316 µM): 40.9%
- viability, T/C (second compound 0.316 µM, first compound 0.01 µM): 31.5%
- viability, T/C [19]: 16%
- viability, T/C [20]: 12.5%
- viability, T/C (second compound 1 µM, first compound 0.000316 µM): 60.3%
- viability, T/C (second compound 1 µM, first compound 0.001 µM): 56.5%
- viability, T/C (second compound 1 µM, first compound 0.00316 µM): 44.4%
- viability, T/C (second compound 1 µM, first compound 0.01 µM): 33.8%
- viability, T/C [25]: 25.1%
- viability, T/C [26]: 20.3%

Structure (SMILES): CC1(C)CCC(CN2CCN(c3ccc(C(=O)NS(=O)(=O)c4ccc(NCC5CCOCC5)c([N+](=O)[O-])c4)c(Oc4cnc5[nH]ccc5c4)c3)CC2)=C(c2ccc(Cl)cc2)C1 + CCN1CCN(Cc2ccc(Nc3ncc(F)c(-c4cc(F)c5nc(C)n(C(C)C)c5c4)n3)nc2)CC1
- IC50 (second compound 0.01 µM): 4890 nM
- IC50 (second compound 0.0316 µM): 4110 nM
- IC50 (second compound 0.1 µM): 4190 nM
- IC50 (second compound 0.316 µM): 3640 nM
- IC50 (second compound 1 µM): 3430 nM
- viability, T/C [1]: 108%
- viability, T/C [2]: 104%
- viability, T/C [3]: 103%
- viability, T/C [4]: 99.8%
- viability, T/C [5]: 70.2%
- viability, T/C [6]: 16.7%
- viability, T/C [7]: 95.8%
- viability, T/C [8]: 101%
- viability, T/C [9]: 97%
- viability, T/C [10]: 90.4%
- viability, T/C [11]: 61.5%
- viability, T/C [12]: 11.1%
- viability, T/C [13]: 94.8%
- viability, T/C [14]: 102%
- viability, T/C [15]: 92%
- viability, T/C [16]: 78.9%
- viability, T/C [17]: 64.3%
- viability, T/C [18]: 13.5%
- viability, T/C [19]: 84%
- viability, T/C [20]: 88.2%
- viability, T/C [21]: 80.3%
- viability, T/C [22]: 72.5%
- viability, T/C [23]: 56.7%
- viability, T/C [24]: 10.8%
- viability, T/C [25]: 71.3%
- viability, T/C [26]: 72.8%
- viability, T/C [27]: 68.3%
- viability, T/C [28]: 69.5%
- viability, T/C [29]: 52.2%
- viability, T/C [30]: 12.3%

Structure (SMILES): CCCS(=O)(=O)Nc1ccc(F)c(C(=O)c2c[nH]c3ncc(-c4ccc(Cl)cc4)cc23)c1F + CCN1CCN(Cc2ccc(Nc3ncc(F)c(-c4cc(F)c5nc(C)n(C(C)C)c5c4)n3)nc2)CC1
- IC50 (second compound 0.01 µM): > 10000 nM
- IC50 (second compound 0.0316 µM): > 10000 nM
- IC50 (second compound 0.1 µM): > 10000 nM
- IC50 (second compound 0.316 µM): > 10000 nM
- IC50 (second compound 1 µM): > 10000 nM
- viability, T/C [1]: 107%
- viability, T/C [2]: 107%
- viability, T/C [3]: 102%
- viability, T/C [4]: 115%
- viability, T/C [5]: 106%
- viability, T/C [6]: 79.8%
- viability, T/C [7]: 101%
- viability, T/C [8]: 107%
- viability, T/C [9]: 105%
- viability, T/C [10]: 115%
- viability, T/C [11]: 106%
- viability, T/C [12]: 72.4%
- viability, T/C [13]: 95.8%
- viability, T/C [14]: 95.5%
- viability, T/C [15]: 99.3%
- viability, T/C [16]: 107%
- viability, T/C [17]: 98.3%
- viability, T/C [18]: 65.9%
- viability, T/C [19]: 80.3%
- viability, T/C [20]: 84.9%
- viability, T/C [21]: 87.1%
- viability, T/C [22]: 88.6%
- viability, T/C [23]: 89.4%
- viability, T/C [24]: 52.4%
- viability, T/C [25]: 70.1%
- viability, T/C [26]: 66.9%
- viability, T/C [27]: 67%
- viability, T/C [28]: 64.6%
- viability, T/C [29]: 69.9%
- viability, T/C [30]: 54.8%

Structure (SMILES): Cn1cnc2c(F)c(Nc3ccc(Br)cc3Cl)c(C(=O)NOCCO)cc21 + CCN1CCN(Cc2ccc(Nc3ncc(F)c(-c4cc(F)c5nc(C)n(C(C)C)c5c4)n3)nc2)CC1
- IC50 (second compound 0.01 µM): 256 nM
- IC50 (second compound 0.0316 µM): 213 nM
- IC50 (second compound 0.1 µM): 145 nM
- IC50 (second compound 0.316 µM): 184 nM
- IC50 (second compound 1 µM): 82.4 nM
- viability, T/C (second compound 0.01 µM, first compound 0.00949 µM): 80.8%
- viability, T/C (second compound 0.01 µM, first compound 0.03 µM): 74.8%
- viability, T/C (second compound 0.01 µM, first compound 0.0949 µM): 56.1%
- viability, T/C (second compound 0.01 µM, first compound 0.3 µM): 50.7%
- viability, T/C (second compound 0.01 µM, first compound 0.949 µM): 42.8%
- viability, T/C (second compound 0.01 µM, first compound 3 µM): 38.6%
- viability, T/C (second compound 0.0316 µM, first compound 0.00949 µM): 71%
- viability, T/C (second compound 0.0316 µM, first compound 0.03 µM): 64.5%
- viability, T/C (second compound 0.0316 µM, first compound 0.0949 µM): 53.5%
- viability, T/C (second compound 0.0316 µM, first compound 0.3 µM): 46.7%
- viability, T/C (second compound 0.0316 µM, first compound 0.949 µM): 44.5%
- viability, T/C (second compound 0.0316 µM, first compound 3 µM): 34.4%
- viability, T/C (second compound 0.1 µM, first compound 0.00949 µM): 67.4%
- viability, T/C (second compound 0.1 µM, first compound 0.03 µM): 57.6%
- viability, T/C (second compound 0.1 µM, first compound 0.0949 µM): 53.8%
- viability, T/C (second compound 0.1 µM, first compound 0.3 µM): 46.3%
- viability, T/C (second compound 0.1 µM, first compound 0.949 µM): 39.9%
- viability, T/C (second compound 0.1 µM, first compound 3 µM): 37.1%
- viability, T/C (second compound 0.316 µM, first compound 0.00949 µM): 61.5%
- viability, T/C (second compound 0.316 µM, first compound 0.03 µM): 56.3%
- viability, T/C (second compound 0.316 µM, first compound 0.0949 µM): 52.8%
- viability, T/C (second compound 0.316 µM, first compound 0.3 µM): 45.9%
- viability, T/C (second compound 0.316 µM, first compound 0.949 µM): 47.4%
- viability, T/C (second compound 0.316 µM, first compound 3 µM): 39.2%
- viability, T/C (second compound 1 µM, first compound 0.00949 µM): 58.1%
- viability, T/C (second compound 1 µM, first compound 0.03 µM): 54.1%
- viability, T/C (second compound 1 µM, first compound 0.0949 µM): 48.8%
- viability, T/C (second compound 1 µM, first compound 0.3 µM): 44.4%
- viability, T/C (second compound 1 µM, first compound 0.949 µM): 42.1%
- viability, T/C (second compound 1 µM, first compound 3 µM): 35%
